# Publication PMC5762315, “Inhibition of polo-like kinase 4 (PLK4): a new therapeutic option for rhabdoid tumors and pediatric medulloblastoma” (Oncotarget, 2017)
# Several values for one entry are separate records, joined by “and”; a condition that tells them apart may be missing. Identical values can stand only once.
# How the values were obtained:
# Test in all cases: LanthaScreen Eu Kinase Binding Assay, panel of 486 biochemical kinase assays
# various kinases [1] = biological target: various kinases (Homo sapiens, UniProt P06241); conditions: FYN A
# various kinases [2] = biological target: various kinases (Homo sapiens, UniProt P19525); conditions: EIF2AK2 (PKR)
# various kinases [3] = biological target: various kinases (Homo sapiens, UniProt P29320); conditions: EPHA3
# various kinases [4] = biological target: various kinases (Homo sapiens, UniProt P30530, R499C); conditions: AXL R499C
# various kinases [5] = biological target: T1, various kinases (Homo sapiens, UniProt P36897); conditions: kinase TGFBR1 (ALK5); LanthaScreen Binding
# T1 sequence (P36897 34-503): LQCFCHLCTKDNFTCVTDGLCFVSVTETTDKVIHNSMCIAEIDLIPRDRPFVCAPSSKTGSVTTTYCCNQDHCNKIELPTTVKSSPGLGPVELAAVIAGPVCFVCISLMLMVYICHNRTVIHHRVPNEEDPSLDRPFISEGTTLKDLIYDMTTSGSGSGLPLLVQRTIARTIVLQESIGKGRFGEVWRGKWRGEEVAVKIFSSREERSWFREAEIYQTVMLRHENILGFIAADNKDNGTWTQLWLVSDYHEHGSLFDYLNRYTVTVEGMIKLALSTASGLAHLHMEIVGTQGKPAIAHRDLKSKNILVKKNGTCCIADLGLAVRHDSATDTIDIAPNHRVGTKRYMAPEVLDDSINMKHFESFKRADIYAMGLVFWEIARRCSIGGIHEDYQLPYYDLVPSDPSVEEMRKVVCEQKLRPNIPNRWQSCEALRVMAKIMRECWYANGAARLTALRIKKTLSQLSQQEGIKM
# various kinases [6] = biological target: various kinases (Homo sapiens, UniProt P49336); conditions: CDK8/cyclin C
# various kinases [7] = biological target: various kinases (Homo sapiens, UniProt P53671); conditions: LIMK2
# various kinases [8] = biological target: various kinases (Homo sapiens, UniProt P53779); conditions: MAPK10 (JNK3)
# various kinases (Homo sapiens, UniProt P53779), sequence (P53779 whole entry): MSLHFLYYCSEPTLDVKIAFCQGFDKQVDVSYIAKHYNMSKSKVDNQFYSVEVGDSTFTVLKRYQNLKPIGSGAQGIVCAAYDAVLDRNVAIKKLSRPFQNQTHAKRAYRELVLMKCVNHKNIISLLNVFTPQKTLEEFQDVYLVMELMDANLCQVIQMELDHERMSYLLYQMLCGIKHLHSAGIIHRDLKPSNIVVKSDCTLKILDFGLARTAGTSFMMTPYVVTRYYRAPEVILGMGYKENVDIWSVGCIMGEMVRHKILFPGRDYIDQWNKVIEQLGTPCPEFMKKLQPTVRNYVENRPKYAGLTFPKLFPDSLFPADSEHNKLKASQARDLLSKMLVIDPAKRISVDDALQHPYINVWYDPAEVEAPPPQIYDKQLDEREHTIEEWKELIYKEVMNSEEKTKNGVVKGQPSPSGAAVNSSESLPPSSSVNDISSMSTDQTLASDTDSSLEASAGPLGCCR
# various kinases [9] = biological target: various kinases (Homo sapiens, UniProt Q02750, S218D/S222D); conditions: MAP2K1 (MEK1) S218D S222D
# various kinases (Homo sapiens, UniProt Q02750, S218D/S222D), sequence (Q02750 whole entry S218D/S222D): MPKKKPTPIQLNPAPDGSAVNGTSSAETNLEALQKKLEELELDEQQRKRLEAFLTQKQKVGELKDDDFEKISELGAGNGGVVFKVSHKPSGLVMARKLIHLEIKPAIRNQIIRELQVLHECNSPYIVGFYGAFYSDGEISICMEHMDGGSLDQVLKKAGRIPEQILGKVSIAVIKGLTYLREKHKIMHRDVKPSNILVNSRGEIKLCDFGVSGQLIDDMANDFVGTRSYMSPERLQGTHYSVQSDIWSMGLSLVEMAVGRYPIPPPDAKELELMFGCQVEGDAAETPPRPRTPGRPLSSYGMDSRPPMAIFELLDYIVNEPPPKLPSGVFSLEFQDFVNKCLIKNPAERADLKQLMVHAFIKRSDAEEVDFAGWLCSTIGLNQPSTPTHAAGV
# various kinases [10] = biological target: various kinases (Homo sapiens, UniProt Q09013); conditions: DMPK
# various kinases [11] = biological target: various kinases (Homo sapiens, UniProt Q15569); conditions: kinase TESK1; LanthaScreen Binding
# various kinases (Homo sapiens, UniProt Q15569), sequence (Q15569 whole entry): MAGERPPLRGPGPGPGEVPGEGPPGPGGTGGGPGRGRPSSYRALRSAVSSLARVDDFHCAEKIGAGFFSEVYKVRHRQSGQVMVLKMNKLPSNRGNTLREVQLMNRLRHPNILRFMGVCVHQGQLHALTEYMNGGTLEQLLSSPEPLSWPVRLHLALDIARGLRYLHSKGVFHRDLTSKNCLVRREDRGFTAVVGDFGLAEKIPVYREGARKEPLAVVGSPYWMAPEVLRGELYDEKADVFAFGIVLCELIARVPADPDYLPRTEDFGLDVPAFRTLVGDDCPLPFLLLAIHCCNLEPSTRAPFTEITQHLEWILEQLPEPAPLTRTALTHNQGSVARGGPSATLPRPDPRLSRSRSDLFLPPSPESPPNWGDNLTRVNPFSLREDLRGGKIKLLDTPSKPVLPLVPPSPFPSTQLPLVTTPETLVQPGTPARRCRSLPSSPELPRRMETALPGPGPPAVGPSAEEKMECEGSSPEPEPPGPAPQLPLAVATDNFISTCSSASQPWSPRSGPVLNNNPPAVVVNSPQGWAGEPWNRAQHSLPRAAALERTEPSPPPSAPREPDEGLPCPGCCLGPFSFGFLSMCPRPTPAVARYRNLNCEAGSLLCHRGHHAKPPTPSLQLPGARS
# various kinases [12] = biological target: various kinases (Homo sapiens, UniProt Q32MK0); conditions: MLCK (MLCK2)
# various kinases [13] = biological target: T2, various kinases (Homo sapiens, UniProt Q7L7X3); conditions: kinase TAOK1; LanthaScreen Binding
# T2 sequence (Q7L7X3 1-1001): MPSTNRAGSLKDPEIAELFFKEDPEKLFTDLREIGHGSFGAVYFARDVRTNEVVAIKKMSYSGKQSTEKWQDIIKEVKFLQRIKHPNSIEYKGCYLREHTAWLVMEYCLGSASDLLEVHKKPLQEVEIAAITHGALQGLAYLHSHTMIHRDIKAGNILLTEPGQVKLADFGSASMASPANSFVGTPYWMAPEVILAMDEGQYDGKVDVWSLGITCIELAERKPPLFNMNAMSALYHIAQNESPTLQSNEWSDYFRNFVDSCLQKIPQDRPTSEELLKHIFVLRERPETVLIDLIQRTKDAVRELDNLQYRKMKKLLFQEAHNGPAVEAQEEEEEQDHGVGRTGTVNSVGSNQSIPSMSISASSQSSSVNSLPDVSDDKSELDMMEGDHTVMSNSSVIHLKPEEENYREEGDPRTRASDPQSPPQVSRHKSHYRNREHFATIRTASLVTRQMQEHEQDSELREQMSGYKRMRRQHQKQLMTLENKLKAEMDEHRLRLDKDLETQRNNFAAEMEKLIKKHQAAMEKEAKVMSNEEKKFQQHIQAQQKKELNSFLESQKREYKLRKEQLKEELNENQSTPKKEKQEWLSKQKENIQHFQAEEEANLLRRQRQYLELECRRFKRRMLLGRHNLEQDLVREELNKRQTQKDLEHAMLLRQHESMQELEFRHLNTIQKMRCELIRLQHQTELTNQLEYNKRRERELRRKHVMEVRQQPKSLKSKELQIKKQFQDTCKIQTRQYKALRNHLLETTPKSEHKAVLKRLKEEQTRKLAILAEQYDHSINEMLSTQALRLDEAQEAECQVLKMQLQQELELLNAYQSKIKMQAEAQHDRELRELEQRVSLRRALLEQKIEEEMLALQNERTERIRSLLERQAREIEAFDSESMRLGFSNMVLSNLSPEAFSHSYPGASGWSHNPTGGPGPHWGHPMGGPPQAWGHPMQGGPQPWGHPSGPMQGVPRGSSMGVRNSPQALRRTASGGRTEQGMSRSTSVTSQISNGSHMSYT
# various kinases [14] = biological target: various kinases (Homo sapiens, UniProt Q86Y07); conditions: kinase VRK2; LanthaScreen Binding
# various kinases (Homo sapiens, UniProt Q86Y07), sequence (Q86Y07 whole entry): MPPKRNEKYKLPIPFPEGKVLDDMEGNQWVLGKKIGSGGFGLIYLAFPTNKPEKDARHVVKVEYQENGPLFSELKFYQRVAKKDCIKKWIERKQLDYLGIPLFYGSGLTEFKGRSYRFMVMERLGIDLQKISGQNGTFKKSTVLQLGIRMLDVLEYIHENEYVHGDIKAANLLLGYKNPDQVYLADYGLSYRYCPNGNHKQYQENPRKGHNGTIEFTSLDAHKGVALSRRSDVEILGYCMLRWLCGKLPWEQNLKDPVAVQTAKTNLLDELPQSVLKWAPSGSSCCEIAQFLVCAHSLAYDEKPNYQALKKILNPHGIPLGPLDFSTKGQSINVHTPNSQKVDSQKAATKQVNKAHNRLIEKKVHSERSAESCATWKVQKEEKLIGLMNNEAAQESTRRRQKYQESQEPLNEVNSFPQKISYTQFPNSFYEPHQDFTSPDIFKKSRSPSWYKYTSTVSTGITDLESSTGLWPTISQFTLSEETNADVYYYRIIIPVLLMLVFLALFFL
# various kinases [15] = biological target: various kinases (Homo sapiens, UniProt Q8WXR4); conditions: MYO3B (MYO3 beta)
# various kinases [16] = biological target: various kinases (Homo sapiens, UniProt Q9BYT3); conditions: kinase STK33; LanthaScreen Binding
# various kinases (Homo sapiens, UniProt Q9BYT3), sequence (Q9BYT3 whole entry): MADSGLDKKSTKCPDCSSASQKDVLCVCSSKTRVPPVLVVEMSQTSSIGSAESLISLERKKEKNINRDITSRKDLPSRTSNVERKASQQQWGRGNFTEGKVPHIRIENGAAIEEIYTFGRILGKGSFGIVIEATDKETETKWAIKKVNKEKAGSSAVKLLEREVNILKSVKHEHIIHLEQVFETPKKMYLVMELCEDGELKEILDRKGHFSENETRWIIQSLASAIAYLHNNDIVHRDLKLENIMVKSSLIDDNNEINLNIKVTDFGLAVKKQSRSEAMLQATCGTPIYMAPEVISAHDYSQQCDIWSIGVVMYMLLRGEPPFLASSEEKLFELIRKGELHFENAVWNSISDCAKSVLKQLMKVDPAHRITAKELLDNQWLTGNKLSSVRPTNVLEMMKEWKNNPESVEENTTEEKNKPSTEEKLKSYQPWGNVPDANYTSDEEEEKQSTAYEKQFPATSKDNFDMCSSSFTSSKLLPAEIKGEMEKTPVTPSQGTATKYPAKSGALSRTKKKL
# various kinases [17] = biological target: various kinases (Homo sapiens, UniProt Q9H093); conditions: NUAK2
# various kinases (Homo sapiens, UniProt Q9H093), sequence (Q9H093 whole entry): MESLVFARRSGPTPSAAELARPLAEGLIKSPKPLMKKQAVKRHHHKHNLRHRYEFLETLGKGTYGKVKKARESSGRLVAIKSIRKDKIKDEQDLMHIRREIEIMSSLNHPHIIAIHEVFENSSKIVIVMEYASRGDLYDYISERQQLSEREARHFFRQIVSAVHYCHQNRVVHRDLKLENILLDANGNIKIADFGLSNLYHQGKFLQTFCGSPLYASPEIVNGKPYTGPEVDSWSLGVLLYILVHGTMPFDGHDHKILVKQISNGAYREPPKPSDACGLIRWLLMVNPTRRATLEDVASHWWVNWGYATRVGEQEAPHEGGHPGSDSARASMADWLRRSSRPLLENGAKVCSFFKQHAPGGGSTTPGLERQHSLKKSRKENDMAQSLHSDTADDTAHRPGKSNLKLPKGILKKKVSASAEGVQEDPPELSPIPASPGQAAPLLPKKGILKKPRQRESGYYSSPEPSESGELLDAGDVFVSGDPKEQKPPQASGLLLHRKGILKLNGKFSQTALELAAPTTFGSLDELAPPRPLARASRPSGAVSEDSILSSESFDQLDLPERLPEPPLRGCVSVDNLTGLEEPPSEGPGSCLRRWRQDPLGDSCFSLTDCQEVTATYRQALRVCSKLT
# various kinases [18] = biological target: various kinases (Homo sapiens, UniProt Q9UF33); conditions: EPHA6
# various kinases [19] = biological target: various kinases (Homo sapiens, UniProt Q9UKE5); conditions: kinase TNIK; LanthaScreen Binding
# various kinases (Homo sapiens, UniProt Q9UKE5), sequence (Q9UKE5 whole entry): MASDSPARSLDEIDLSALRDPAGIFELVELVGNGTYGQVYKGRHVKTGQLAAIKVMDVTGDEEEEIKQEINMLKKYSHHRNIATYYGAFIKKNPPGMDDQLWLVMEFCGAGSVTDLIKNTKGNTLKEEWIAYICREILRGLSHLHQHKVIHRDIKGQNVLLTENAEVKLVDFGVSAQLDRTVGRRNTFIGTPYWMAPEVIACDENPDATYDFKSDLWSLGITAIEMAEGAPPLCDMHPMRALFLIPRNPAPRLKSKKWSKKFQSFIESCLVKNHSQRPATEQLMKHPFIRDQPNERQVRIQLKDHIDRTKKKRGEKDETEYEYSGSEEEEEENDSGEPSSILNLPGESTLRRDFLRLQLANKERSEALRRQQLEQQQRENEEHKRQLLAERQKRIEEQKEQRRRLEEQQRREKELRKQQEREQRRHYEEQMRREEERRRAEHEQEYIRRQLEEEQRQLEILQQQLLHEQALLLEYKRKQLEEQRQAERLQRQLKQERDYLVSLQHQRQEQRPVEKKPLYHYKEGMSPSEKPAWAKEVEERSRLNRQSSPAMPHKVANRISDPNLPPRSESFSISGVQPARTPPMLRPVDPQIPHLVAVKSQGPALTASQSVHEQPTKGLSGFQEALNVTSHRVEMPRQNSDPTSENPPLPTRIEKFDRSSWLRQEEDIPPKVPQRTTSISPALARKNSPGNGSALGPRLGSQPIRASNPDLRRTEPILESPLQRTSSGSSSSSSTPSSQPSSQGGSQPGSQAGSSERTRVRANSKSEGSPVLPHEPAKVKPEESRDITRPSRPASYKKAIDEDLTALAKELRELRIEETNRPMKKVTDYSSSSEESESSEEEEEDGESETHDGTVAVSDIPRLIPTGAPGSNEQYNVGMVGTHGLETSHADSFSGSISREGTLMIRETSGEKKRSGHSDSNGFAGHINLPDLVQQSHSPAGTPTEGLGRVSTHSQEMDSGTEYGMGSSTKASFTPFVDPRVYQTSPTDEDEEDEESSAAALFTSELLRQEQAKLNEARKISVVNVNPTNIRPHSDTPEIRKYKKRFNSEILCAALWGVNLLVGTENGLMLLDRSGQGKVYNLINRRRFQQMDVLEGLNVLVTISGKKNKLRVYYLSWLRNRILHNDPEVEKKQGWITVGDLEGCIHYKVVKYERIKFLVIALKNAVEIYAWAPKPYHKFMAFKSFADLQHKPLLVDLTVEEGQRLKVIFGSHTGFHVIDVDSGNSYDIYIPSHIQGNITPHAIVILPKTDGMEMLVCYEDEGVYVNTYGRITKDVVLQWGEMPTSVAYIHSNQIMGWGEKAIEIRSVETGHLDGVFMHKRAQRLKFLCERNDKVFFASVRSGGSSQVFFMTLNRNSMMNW
# various kinases [20] = biological target: various kinases (Homo sapiens, UniProt Q9Y2H1); conditions: kinase STK38L (NDR2); LanthaScreen Binding
# various kinases (Homo sapiens, UniProt Q9Y2H1), sequence (Q9Y2H1 whole entry): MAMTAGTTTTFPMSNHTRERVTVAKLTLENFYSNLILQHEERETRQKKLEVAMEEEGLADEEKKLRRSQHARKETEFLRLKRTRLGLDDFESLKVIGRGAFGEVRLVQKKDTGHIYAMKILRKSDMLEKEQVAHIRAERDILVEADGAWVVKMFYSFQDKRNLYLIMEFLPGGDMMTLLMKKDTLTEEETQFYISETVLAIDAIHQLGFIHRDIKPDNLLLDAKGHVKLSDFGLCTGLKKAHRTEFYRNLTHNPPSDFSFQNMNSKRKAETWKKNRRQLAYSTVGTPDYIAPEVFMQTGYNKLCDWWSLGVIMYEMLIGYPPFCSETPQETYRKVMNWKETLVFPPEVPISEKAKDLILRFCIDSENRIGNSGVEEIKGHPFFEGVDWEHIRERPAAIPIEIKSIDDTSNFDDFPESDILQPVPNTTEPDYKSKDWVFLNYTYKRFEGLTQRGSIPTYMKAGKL
smiles,measurement,setting,value
COc1ccc2c(c1)[C@]1(C[C@H]1c1ccc3c(/C=C/c4ccc(CN5C[C@@H](C)O[C@@H](C)C5)cc4)n[nH]c3c1)C(=O)N2 [CFI-400945],% Inhibition,various kinases [1],8%
same,% Inhibition,various kinases [2],3% and -4%
same,% Inhibition,various kinases [3],-2% and -1%
same,% Inhibition,various kinases [4],11% and 12%
same,% Inhibition Average,various kinases [5],3%
same,% Inhibition Duplicate #1,various kinases [5],4%
same,% Inhibition Duplicate #2,various kinases [5],3%
same,% Inhibition,various kinases [6],17% and 9%
same,% Inhibition,various kinases [7],4% and 0%
same,% Inhibition,various kinases [8],3% and -3%
same,% Inhibition,various kinases [9],4% and 10%
same,% Inhibition,various kinases [10],1% and -3%
same,% Inhibition Average,various kinases [11],12%
same,% Inhibition Duplicate #1,various kinases [11],13%
same,% Inhibition Duplicate #2,various kinases [11],11%
same,% Inhibition,various kinases [12],1% and 6%
same,% Inhibition Average,various kinases [13],14%
same,% Inhibition Duplicate #1,various kinases [13],15%
same,% Inhibition Duplicate #2,various kinases [13],13%
same,% Inhibition Average,various kinases [14],13%
same,% Inhibition Duplicate #1,various kinases [14],17%
same,% Inhibition Duplicate #2,various kinases [14],8%
same,% Inhibition,various kinases [15],7% and 6%
same,% Inhibition Average,various kinases [16],-2%
same,% Inhibition Duplicate #1,various kinases [16],-2%
same,% Inhibition Duplicate #2,various kinases [16],-2%
same,% Inhibition,various kinases [17],44% and 36%
same,% Inhibition,various kinases [18],18% and 24%
same,% Inhibition Average,various kinases [19],26%
same,% Inhibition Duplicate #1,various kinases [19],33%
same,% Inhibition Duplicate #2,various kinases [19],18%
same,% Inhibition Average,various kinases [20],16%
same,% Inhibition Duplicate #1,various kinases [20],10%
same,% Inhibition Duplicate #2,various kinases [20],21%
